# Patent US20190175528A1, “INHIBITION OF BIOFILM ORGANISMS” (NovaBiotics Limited, priority 2009, published 2019)
# Numbered stars: 1 amine (or outer) side, 2 acyl side, 3 side chain; on linkers, the order of the positions; unused ones are H or OH. Ends that are not written are not given here. Peptide text beside a SMILES is read from it. Cysteamide = C(CS[*:3])N[*:1]
# Assays:
# S. epidermidis ATCC12228 [1] = type: cell-based, Staphylococcus epidermidis; conditions: ATCC12228, 24 h
# Method: (§1) The bacterial inoculum was established by the dilution method from actively-growing cultures in Mueller-Hinton broth, standardized with 0.5 McFarland turbidity standard as described in the CLSI method M26-A.
# (§2) To determine the prevention of biofilm formation, both the bacterial inoculum and the antimicrobial agents were added simultaneously to the plates. The plates were incubated at 37° C. for 24 h and the optical density was read at 625 nm on a microtitre plate reader (BioTek Powerwave XS, Winooski, USA). The MIC was obtained as the lowest concentration of antimicrobial showing total inhibition of bacterial growth.
# [2] = test system: S. aureus DSM 11729 (MRSA); test: microbe, parasite or virus in culture; type: cell-based, Staphylococcus aureus; conditions: DSM 11729, 24 h; for MIC pH5.5, 320 mM NaCl, S. aureus 11729 / MIC pH5.5, S. aureus 11729: pH 5.5
# Method: as §1
# as §2, with “growth. […]” for “growth.”
# (§3) FIC=MICA[combination]/MICA[alone]+MICB[combination]/MICB[alone] […]
# (§4) In order to assess for the prevention of biofilm formation by both Gram-positive and Gram-negative bacteria, the bacterial inoculum and antimicrobial agents were added simultaneously in the plates. The range of concentrations of antimicrobial agents was 0-500 μg/ml NP108 and 0-320 μg/ml cysteamine against the Gram-negative bacteria P. aeruginosa ATCC BAA-47 and 0-1000 μg/ml NP108 and 0-320 μg/ml cysteamine against the Gram-positive MRSA.
# [3] = test system: P. aeruginosa ATCC BAA-47; test: microbe, parasite or virus in culture; type: cell-based, Pseudomonas aeruginosa; conditions: ATCC BAA-47, 24 h; for MIC pH5.5, 320 mM NaCl, P. aeruginosa ATCCBAA-47 / MIC pH5.5, P. aeruginosa ATCCBAA-47: pH 5.5
# Method: as §1
# as §2, with “growth. […]” for “growth.”
# as §3, §4
# [4] = test system: P. aeruginosa ATCC BAA-47; conditions: for MBC at pH5.5, P. aeruginosa ATCCBAA-47 / MBC pH5.5, 320 mM NaCl, P. aeruginosa ATCCBAA-47: ATCC BAA-47, pH 5.5; for MBC following MIC at pH 7, P. aeruginosa ATCCBAA-47: ATCC BAA-47, pH 7
# S. aureus ATCC25923 [5] = type: cell-based, Staphylococcus aureus; conditions: ATCC25923, 24 h
# Method: as §1, §2
# P. aeruginosa DSMZ1299 [6] = conditions: DSMZ1299, pH 7
# P. aeruginosa DSMZ1128 [7] = conditions: DSMZ1128, pH 7
# S. epidermidis ATCC12228 [8] = conditions: ATCC12228, pH 7
# S. aureus ATCC25923 [9] = conditions: ATCC25923, pH 7
# [10] = test system: S. aureus DSM 11729 (MRSA); conditions: for MBC at pH5.5, S. aureus 11729 / MBC pH5.5, 320 mM NaCl, S. aureus 11729: DSM 11729, pH 5.5; for MBC following MIC at pH 7, S. aureus DSMZ11729: DSM 11729, pH 7
# P. aeruginosa DSMZ1128 [11] = type: cell-based, Pseudomonas aeruginosa; conditions: DSMZ1128, 24 h
# Method: as §1, §2
# P. aeruginosa DSMZ1299 [12] = type: cell-based, Pseudomonas aeruginosa; conditions: for MIC at pH 7, P. aeruginosa D5MZ1299: DSMZ1299, 24 h
# Method: as §1, §2
Compound,"MIC at pH 7, S. epidermidis ATCC12228 (S. epidermidis ATCC12228 [1])","MIC pH5.5, 320 mM NaCl, S. aureus 11729 [2]","MIC pH5.5, S. aureus 11729 [2]","MIC at pH 7, S. aureus DSMZ11729 [2]","MIC pH5.5, 320 mM NaCl, P. aeruginosa ATCCBAA-47 [3]","MIC pH5.5, P. aeruginosa ATCCBAA-47 [3]","MIC at pH 7, P. aeruginosa ATCCBAA-47 [3]","MBC at pH5.5, P. aeruginosa ATCCBAA-47 [4]","MBC pH5.5, 320 mM NaCl, P. aeruginosa ATCCBAA-47 [4]","MBC following MIC at pH 7, P. aeruginosa ATCCBAA-47 [4]","MIC at pH 7, S. aureus ATCC25923 (S. aureus ATCC25923 [5])","MBC following MIC at pH 7, P. aeruginosa DSMZ1299 (P. aeruginosa DSMZ1299 [6])","MBC following MIC at pH 7, P. aeruginosa DSMZ1128 (P. aeruginosa DSMZ1128 [7])","MBC following MIC at pH 7, S. epidermidis ATCC12228 (S. epidermidis ATCC12228 [8])","MBC following MIC at pH 7, S. aureus ATCC25923 (S. aureus ATCC25923 [9])","MBC at pH5.5, S. aureus 11729 [10]","MBC pH5.5, 320 mM NaCl, S. aureus 11729 [10]","MBC following MIC at pH 7, S. aureus DSMZ11729 [10]","MIC at pH 7, P. aeruginosa DSMZ1128 (P. aeruginosa DSMZ1128 [11])","MIC at pH 7, P. aeruginosa D5MZ1299 (P. aeruginosa DSMZ1299 [12])",further results
"N=C(N)NCCC[C@H](NC(=O)[C@H](CCCCN)NC(=O)[C@@H]1CCCN1C(=O)[C@H](CCCNC(=N)N)NC(=O)[C@H](CCCNC(=N)N)NC(=O)[C@@H]1CCCN1C(=O)[C@H](CCCCN)NC(=O)[C@H](CCCNC(=N)N)NC(=O)[C@H](CCCNC(=N)N)NC(=O)[C@@H]1CCCN1C(=O)[C@H](CCCCN)NC(=O)[C@@H](N)CCCCN)C(=O)N[C@@H](CCCCN)C(=O)N[C@@H](CCCCN)C(=O)NCCS [NP449, KKPRRKPRRPKRKK-cysteamine] (H-KKPRRKPRRPKRKK-Cysteamide; N-terminus assumed)",31.25 μg/ml,>500 μg/ml,>500 μg/ml,125 μg/ml,>500 μg/ml,>500 μg/ml,250 μg/ml,>500 μg/ml,>500 μg/ml,>500 μg/ml,250 μg/ml,250 (2) μg/ml,500 (2) μg/ml,125 μg/ml,>500 μg/ml,>500 μg/ml,>500 μg/ml,250 μg/ml,250 μg/ml,125 μg/ml,
"N=C(N)NCCC[C@H](NC(=O)[C@H](CCCCN)NC(=O)[C@@H]1CCCN1C(=O)[C@H](CCCNC(=N)N)NC(=O)[C@H](CCCNC(=N)N)NC(=O)[C@@H]1CCCN1C(=O)[C@H](CCCCN)NC(=O)[C@H](CCCNC(=N)N)NC(=O)[C@H](CCCNC(=N)N)NC(=O)[C@@H]1CCCN1C(=O)[C@H](Cc1c[nH]cn1)NC(=O)[C@@H](N)Cc1c[nH]cn1)C(=O)N[C@@H](Cc1c[nH]cn1)C(=O)N[C@@H](Cc1c[nH]cn1)C(=O)NCCS [NP451, HHPRRKPRRPKRHH-cysteamine] (H-HHPRRKPRRPKRHH-Cysteamide; N-terminus assumed)",125 μg/ml,>500 μg/ml,>500 μg/ml,500 μg/ml,>500 μg/ml,>500 μg/ml,>500 μg/ml,250 μg/ml,>500 μg/ml,>500 μg/ml,500 μg/ml,>500 μg/ml,>500 μg/ml,125 μg/ml,>500 μg/ml,>500 μg/ml,>500 μg/ml,>500 μg/ml,>500 μg/ml,>500 μg/ml,"Exp#3, P. aeruginosa DSMZ1299 (quantity not clearly headed) (P. aeruginosa DSMZ1299 [12]): >500 µg/mL"
"N=C(N)NCCC[C@H](NC(=O)[C@H](CCCNC(=N)N)NC(=O)[C@H](CCCNC(=N)N)NC(=O)[C@H](CCCNC(=N)N)NC(=O)[C@@H](N)CCCNC(=N)N)C(=O)NCCS [NP457, RRRRR-cysteamine] (H-RRRRR-Cysteamide; N-terminus assumed)",31.25 μg/ml,>500 μg/ml,>500 μg/ml,125 μg/ml,>500 μg/ml,>500 μg/ml,250 μg/ml,>500 μg/ml,>500 μg/ml,>500 μg/ml,125 μg/ml,>500 μg/ml,>500 μg/ml,125 (2) μg/ml,62.5 μg/ml,>500 μg/ml,>500 μg/ml,125 (2) μg/ml,>500 μg/ml,>500 μg/ml,"Exp#3, P. aeruginosa DSMZ1299 (quantity not clearly headed) (P. aeruginosa DSMZ1299 [12]): >500 µg/mL"
"N=C(N)NCCC[C@H](NC(=O)[C@H](CCCNC(=N)N)NC(=O)[C@H](CCCNC(=N)N)NC(=O)[C@H](CCCNC(=N)N)NC(=O)[C@@H](N)CCCNC(=N)N)C(=O)N[C@@H](Cc1c[nH]cn1)C(=O)N[C@@H](Cc1c[nH]cn1)C(=O)NCCS [NP458, RRRRRHH-cysteamine] (H-RRRRRHH-Cysteamide; N-terminus assumed)",31.25 μg/ml,>500 μg/ml,>500 μg/ml,250 μg/ml,>500 μg/ml,>500 μg/ml,62.5 μg/ml,>500 μg/ml,>500 μg/ml,>500 μg/ml,250 μg/ml,>500 μg/ml,>500 μg/ml,500 μg/ml,125 μg/ml,>500 μg/ml,>500 μg/ml,250 μg/ml,250 μg/ml,125 μg/ml,
"HHHFRFFFRFRRR [NP438, HHHFRFFFRFRRR]",<7.8 μg/ml,>500 μg/ml,>500 μg/ml,>500 μg/ml,62.5 μg/ml,125 μg/ml,>500 μg/ml,>500 μg/ml,>500 μg/ml,>500 μg/ml,>500 μg/ml,>500 μg/ml,>500 μg/ml,125 μg/ml,>500 μg/ml,>500 μg/ml,>500 μg/ml,>500 μg/ml,>500 μg/ml,500 μg/ml,
